Molecular target: T1, human FXR (NR1H4) (Homo sapiens, UniProt Q96RI1)
T1 construct: host or cells: CHO (Chinese hamster ovary) reporter cells
T1 sequence (Q96RI1 1-486): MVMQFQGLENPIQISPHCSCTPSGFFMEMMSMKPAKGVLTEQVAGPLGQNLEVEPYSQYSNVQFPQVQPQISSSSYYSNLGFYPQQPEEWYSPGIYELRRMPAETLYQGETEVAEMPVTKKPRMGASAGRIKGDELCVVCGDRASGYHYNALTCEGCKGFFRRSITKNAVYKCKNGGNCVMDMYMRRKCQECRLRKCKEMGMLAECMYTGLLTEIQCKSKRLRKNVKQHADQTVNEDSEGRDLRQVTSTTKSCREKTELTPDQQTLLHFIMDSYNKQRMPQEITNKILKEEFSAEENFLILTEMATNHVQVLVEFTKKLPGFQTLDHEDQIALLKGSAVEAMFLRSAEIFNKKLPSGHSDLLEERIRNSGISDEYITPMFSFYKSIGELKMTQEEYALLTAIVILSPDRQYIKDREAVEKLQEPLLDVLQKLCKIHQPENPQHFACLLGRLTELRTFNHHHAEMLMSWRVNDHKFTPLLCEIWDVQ
Experiment: Human FXR (NR1H4) Assay: Gal4 promoter driven luciferase reporter transactivation in CHO cells (Indigo Bioscience kit IB00601); as to Efficacy (%): efficacy normalized to CDCA set as 100%
Assay type: cell-based
Settings: for Emax: CHO, read-out: Efficacy (%); for EC50: Human FXR (NR1H4) reporter assay, potency ranges
Source text: Human FXR (NR1H4) Assay Determination of a ligand mediated Gal4 promoter driven transactivation to quantify ligand binding mediated activation of FXR. FXR Reporter Assay kit purchased from Indigo Bioscience (Catalogue number: IB00601) to determine the potency and efficacy of compound developed by Enanta that can induce FXR activation. The principle application of this reporter assay system is to quantify functional activity of human FXR. The assay utilizes non-human mammalian cells, CHO (Chinese hamster ovary) cells engineered to express human NR1H4 protein (referred to as FXR). Reporter cells also incorporate the cDNA encoding beetle luciferase which catalyzes the substrates and yields photon emission. Luminescence intensity of the reaction is quantified using a plate-reading luminometer, Envision. Reporter Cells include the luciferase reporter gene functionally linked to an FXR responsive promoter. Thus, quantifying changes in luciferase expression in the treated reporter cells provides a sensitive surrogate measure of the changes in FXR activity. […] The assay is according to the manufacturer's instructions. In brief, the assay was performed in white, 96 well plates using final volume of 100 ul containing cells with different doses of compounds. Retrieve Reporter Cells from −80° C. storage. Perform a rapid thaw of the frozen cells by transferring a 10 ml volume of 37° C. cell recovery medium into the tube of frozen cells. Recap the tube of Reporter Cells and immediately place it in a 37° C. water bath for 5-10 minutes. Retrieve the tube of Reporter Cell Suspension from the water bath. Sanitize the outside surface of the tube with a 70% alcohol swab, and then transfer it into the cell culture hood. Dispense 90 μl of cell suspension into each well of the 96-well Assay Plate. Transfer the plate into 37° C. incubator, allowing the cells adherent to the bottom of the well. Dilute compounds in Dilution Plate (DP), and administrate to cells at Assay Plate (AP). DMSO content of the samples was kept at 0.2%. Cells were incubated for additional 22 hours before luciferase activities were measured. Thirty minutes before intending to quantify FXR activity, remove Detection Substrate and Detection Buffer from the refrigerator and place them in a low-light area so that they may equilibrate to room temperature. Remove the plate's lid and discard all media contents by ejecting it into an appropriate waste container. Gently tap the inverted plate onto a clean absorbent paper towel to remove residual droplets. Cells will remain tightly adhered to well bottoms. Add 100 ul of luciferase detection reagent to each well of the assay plate. Allow the assay plate to rest at room temperature for at least 5 minutes following the addition of LDR. Set the instrument (Envision) to perform a single 5 second “plate shake” prior to reading the first assay well. Read time may be 0.5 second (500 mSec) per well.

Q: With `O=C(O)c1ccc2nc(N3C4CCC3CC(NCc3c(-c5c(F)cccc5F)noc3C3CC3)C4)sc2c1` (stereo not drawn) [Example 1411] as the molecule, how does the Emax read?
A: 94.7%

Q: And the EC50?
A: 1 to 100 nM

Q: What does the source list for `O=C(NS(=O)(=O)N1CCCCC1)c1cc2sc(N3C4CCC3CC(NCc3c(-c5c(Cl)cccc5Cl)noc3C3CC3)C4)nc2cc1F` (stereo not drawn) [Example 400-24]?
A: Emax: 88.2%; EC50: < 1 nM

Q: With `COC(=O)c1cc2sc(N3C4CCC3CC(NCc3c(-c5c(Cl)cccc5Cl)noc3C3CC3)C4)nc2cc1Br` (stereo not drawn) [Example 200-19] as the molecule, how does the Emax read?
A: 50.5%

Q: What about the EC50 of the same molecule?
A: 1 to 100 nM

Q: Which Emax does the source give for `COC(=O)c1ccc2nc(N3C4CCC3CC(NCc3c(-c5c(Cl)cccc5Cl)noc3C3CC3)C4)sc2c1Br` (stereo not drawn) [Example 200-21] here?
A: 58%

Q: What about the EC50 of the same molecule?
A: 1 to 100 nM

Q: With `Cc1cc(C(=O)O)cc2sc(N3C4CCC3CC(NCc3c(-c5c(Cl)cccc5Cl)noc3C3CC3)C4)nc12` (stereo not drawn) [Example 8] as the molecule, how does the Emax read?
A: 109%

Q: What about the EC50 of the same molecule?
A: < 1 nM

Q: `CC1(S(=O)(=O)NC(=O)c2ccc3nc(N4C5CCC4CC(NCc4c(-c6ccccc6C6CC6)noc4C4CC4)C5)sc3c2)CC1` (stereo not drawn) [Example 1422] was tested. Which Emax did it give?
A: 94%

Q: What about the EC50 of the same molecule?
A: 1 to 100 nM

Q: `O=C(NS(=O)(=O)C1CC1)c1cnc2nc(N3C4CCC3CC(NCc3c(-c5ccccc5OC(F)(F)F)noc3C3CC3)C4)sc2n1` (stereo not drawn) [Example 695] was tested. Which Emax did it give?
A: 75%

Q: And the EC50?
A: 1 to 100 nM

Q: Which results are given for `CCOc1cc(C(=O)NS(=O)(=O)N2CCCCC2)cc2sc(N3C4CCC3CC(NCc3c(-c5c(Cl)cccc5Cl)noc3C3CC3)C4)nc12` (stereo not drawn) [Example 400-16]?
A: Emax: 87.3%; EC50: < 1 nM

Q: What does the source list for `O=C(O)c1ccc2nc(N3CCN(Cc4c(-c5c(Cl)cccc5Cl)noc4C4CC4)CC3)sc2c1` [Example 172]?
A: Emax: 257%; EC50: 100 to 1000 nM

Q: How did the Emax turn out when `O=C(O)c1ccc2nc(N3CCC(NCc4c(-c5ccccc5OC(F)(F)F)noc4C4CC4)CC3)sc2c1` [Example 638] was run?
A: 107%

Q: What about the EC50 of the same molecule?
A: 100 to 1000 nM

Q: What does the source list for `O=C(O)c1ccc2nc(N3C4CCC3CC(NCc3c(-c5ccccc5C(F)(F)F)noc3C3CC3)C4)oc2c1` (stereo not drawn) [Example 1418]?
A: Emax: 102%; EC50: 1 to 100 nM

Q: With `O=C(O)c1ccc(N2C3CCC2CC(NCc2c(-c4c(Cl)cccc4Cl)noc2C2CC2)C3)nc1` (stereo not drawn) [Example 125] as the molecule, how does the Emax read?
A: 86.5%

Q: And the EC50?
A: 1 to 100 nM

Q: With `CC(C)(C)OC(=O)CNC(=O)c1cc(F)c2nc(N3C4CCC3CC(NCc3c(-c5c(Cl)cccc5Cl)noc3C3CC3)C4)sc2c1` [Example 95, tert-butyl (2-((1R,3r,5S)-3-(((5-cyclopropyl-3-(2,6-dichlorophenyl)isoxazol-4-yl)methyl)amino)-8-azabicyclo[3.2.1]octan-8-yl)-4-fluorobenzo[d]thiazole-6-carbonyl)glycinate] as the molecule, how does the Emax read?
A: 128%

Q: What about the EC50 of the same molecule?
A: 1 to 100 nM

Q: Which results are given for `CC(C)Oc1cc(C(=O)NS(=O)(=O)C2CC2)cc2sc(N3C4CCC3CC(NCc3c(-c5ccccc5C(F)(F)F)noc3C3CC3)C4)nc12` (stereo not drawn) [Example 1415]?
A: Emax: 106%; EC50: 1 to 100 nM

Q: `O=C(O)c1ccc2nc(N3C4CCC3CC(NCc3c(-c5ccccc5C(F)(F)F)noc3C3CC3)C4)sc2c1` (stereo not drawn) [Example 1413] was tested. Which Emax did it give?
A: 90.7%

Q: What about the EC50 of the same molecule?
A: 1 to 100 nM

Q: How did the Emax turn out when `CN(C)S(=O)(=O)NC(=O)c1ccc2nc(N3CCN(Cc4c(-c5c(Cl)cccc5Cl)noc4C4CC4)CC3)sc2c1` [Example 281] was run?
A: 171%

Q: What about the EC50 of the same molecule?
A: 1 to 100 nM

Q: For `O=C(NS(=O)(=O)C1CC1)c1ccc2nc(N3C4CCC3CC(NCc3c(-c5ccccc5OC(F)(F)F)noc3C3CC3)C4)ccc2c1` (stereo not drawn) [Example 900-15], which Emax is on record?
A: 82.5%

Q: And the EC50?
A: 1 to 100 nM

Q: Which results are given for `COC(=O)c1ccc2nc(N3C4CCC3CC(NCc3c(-c5c(Cl)cccc5Cl)noc3C3CC3)C4)sc2c1-c1ccccc1` (stereo not drawn) [Example 200-25]?
A: Emax: 58.5%; EC50: 1 to 100 nM

Q: Which results are given for `Cc1cc2nc(N3C4CCC3CC(NCc3c(-c5c(Cl)cccc5Cl)noc3C3CC3)C4)sc2cc1C(=O)O` (stereo not drawn) [Example 194]?
A: Emax: 81%; EC50: < 1 nM

Q: How did the Emax turn out when `O=C(NS(=O)(=O)C1CC1)c1ccc(N2C3CCC2CC(NCc2c(-c4ccccc4OC(F)(F)F)noc2C2CC2)C3)nc1` (stereo not drawn) [Example 900-13] was run?
A: 59.5%

Q: What about the EC50 of the same molecule?
A: 1 to 100 nM

Q: Which results are given for `CC(C)Oc1cc(C(=O)O)cc2sc(N3C4CCC3CC(NCc3c(-c5ccccc5OC(F)(F)F)noc3C3CC3)C4)nc12` (stereo not drawn) [Example 414]?
A: Emax: 121%; EC50: < 1 nM

From US10450306B2, “Isoxazole analogs as FXR agonists and methods of use thereof” (Enanta Pharmaceuticals, Inc., priority 2016, dated 2019)
